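Tested at 5 concentrations; 48 h exposure; 96-well plates; endpoints linearly interpolated, else capped at highest concentration. GI50 marks 50% less growth. TGI: total growth inhibition.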
Tests used:
Experiment in all cases: NCI-60 cell line screen, 48 h
UO-31 renal = system: UO-31 renal
KM12 colon = system: KM12 colon
HS 578T breast = system: HS 578T breast
HCT-116 colon = system: HCT-116 colon
EKVX NSCLC = system: EKVX NSCLC
SK-OV-3 ovarian = system: SK-OV-3 ovarian
SF-295 CNS = system: SF-295 CNS
SNB-19 CNS = system: SNB-19 CNS

O=NN(Cc1ccc(Cl)cc1)C(C(=O)O)c1ccccc1 (stereo not given)
TGI (UO-31 renal): > 100 µM | TGI (KM12 colon): > 100 µM | TGI (HS 578T breast): > 100 µM | TGI (HCT-116 colon): > 100 µM | TGI (EKVX NSCLC): > 100 µM | TGI (SK-OV-3 ovarian): > 100 µM | TGI (SF-295 CNS): > 100 µM | TGI (SNB-19 CNS): > 100 µM

CCOC(=O)CCc1cc(=O)oc2cc(O)cc(O)c12
TGI (UO-31 renal): > 100 µM | TGI (KM12 colon): > 100 µM | TGI (HS 578T breast): > 100 µM | TGI (HCT-116 colon): > 100 µM | TGI (EKVX NSCLC): > 100 µM | TGI (SK-OV-3 ovarian): > 100 µM | TGI (SF-295 CNS): > 100 µM | TGI (SNB-19 CNS): > 100 µM

C[C@]12CC[C@H](O)CC1=CC[C@@H]1[C@@H]2CC[C@]2(C)C(c3cccnc3)=CC[C@@H]12
GI50 (UO-31 renal): > 100 µM | TGI (UO-31 renal): > 100 µM | GI50 (KM12 colon): 76.3 µM | TGI (KM12 colon): > 100 µM | GI50 (HS 578T breast): 7.13 µM | TGI (HS 578T breast): > 100 µM | GI50 (HCT-116 colon): 19.2 µM | TGI (HCT-116 colon): > 100 µM | GI50 (EKVX NSCLC): 6.08 µM | TGI (EKVX NSCLC): > 100 µM | GI50 (SK-OV-3 ovarian): > 33.8 µM | TGI (SK-OV-3 ovarian): > 100 µM | GI50 (SF-295 CNS): 6.07 µM | TGI (SF-295 CNS): > 100 µM | GI50 (SNB-19 CNS): 26.8 µM | TGI (SNB-19 CNS): > 100 µM

NCC(=O)NS(=O)(=O)OC[C@H]1O[C@@H](n2cnc3c(N)ncnc32)[C@H](O)[C@@H]1O
GI50 (UO-31 renal): 1.71 µM | TGI (UO-31 renal): 3.25 µM | GI50 (KM12 colon): 3.22 µM | TGI (KM12 colon): 14.4 µM | GI50 (HS 578T breast): 2.89 µM | TGI (HS 578T breast): 9.13 µM | GI50 (HCT-116 colon): 3.14 µM | TGI (HCT-116 colon): 9.19 µM | GI50 (EKVX NSCLC): 2.58 µM | TGI (EKVX NSCLC): 8.88 µM | GI50 (SK-OV-3 ovarian): 2.87 µM | TGI (SK-OV-3 ovarian): 7.94 µM | GI50 (SF-295 CNS): 0.861 µM | TGI (SF-295 CNS): 2.56 µM | GI50 (SNB-19 CNS): 0.378 µM | TGI (SNB-19 CNS): 1.48 µM

CCCCC/C(C=C(C#N)C#N)=C/c1ccccc1
GI50 (UO-31 renal): 7.08 µM | TGI (UO-31 renal): 22.1 µM | GI50 (KM12 colon): 3.37 µM | TGI (KM12 colon): 13.2 µM | GI50 (HS 578T breast): 1.87 µM | TGI (HS 578T breast): 4.76 µM | GI50 (HCT-116 colon): 1.95 µM | TGI (HCT-116 colon): 4.46 µM | GI50 (EKVX NSCLC): 5.98 µM | TGI (EKVX NSCLC): > 55.7 µM | GI50 (SK-OV-3 ovarian): 7.87 µM | TGI (SK-OV-3 ovarian): 23.5 µM | GI50 (SF-295 CNS): 2.76 µM | TGI (SF-295 CNS): 14.6 µM | GI50 (SNB-19 CNS): 6.53 µM | TGI (SNB-19 CNS): 21.8 µM

N#Cc1ccc(C#Cc2ccccc2C#CCCCCO)cc1
GI50 (UO-31 renal): 16.9 µM | TGI (UO-31 renal): 35.3 µM | GI50 (KM12 colon): 17.8 µM | TGI (KM12 colon): 36.2 µM | GI50 (HS 578T breast): 25.7 µM | TGI (HS 578T breast): 64.2 µM | GI50 (HCT-116 colon): 12.7 µM | TGI (HCT-116 colon): 25.3 µM | GI50 (EKVX NSCLC): 17.9 µM | TGI (EKVX NSCLC): 35.3 µM | GI50 (SK-OV-3 ovarian): 18.2 µM | TGI (SK-OV-3 ovarian): 33.5 µM | GI50 (SF-295 CNS): 21.3 µM | TGI (SF-295 CNS): 41 µM | GI50 (SNB-19 CNS): 15.8 µM | TGI (SNB-19 CNS): 29.9 µM

Cc1c(C(=O)N/N=C/c2ccc(Cl)cc2)nnn1-c1ccnc2c(C(F)(F)F)cccc12
GI50 (UO-31 renal): 13 µM | TGI (UO-31 renal): 27.8 µM | GI50 (KM12 colon): 8.94 µM | TGI (KM12 colon): 41.7 µM | GI50 (HS 578T breast): 3.62 µM | TGI (HS 578T breast): 12 µM | GI50 (HCT-116 colon): 2.31 µM | TGI (HCT-116 colon): 5.42 µM | GI50 (EKVX NSCLC): 25.3 µM | TGI (EKVX NSCLC): > 100 µM | GI50 (SK-OV-3 ovarian): 11.6 µM | TGI (SK-OV-3 ovarian): 25.2 µM | GI50 (SF-295 CNS): 1.82 µM | TGI (SF-295 CNS): 4.01 µM | GI50 (SNB-19 CNS): 12.1 µM | TGI (SNB-19 CNS): 30.2 µM

Cc1ccc(-c2c3c([nH]c(=O)c2C#N)-c2cc(F)ccc2OC3)cc1
GI50 (UO-31 renal): 41.3 µM | TGI (UO-31 renal): > 100 µM | GI50 (KM12 colon): 36.1 µM | TGI (KM12 colon): > 100 µM | GI50 (EKVX NSCLC): 95.5 µM | TGI (EKVX NSCLC): > 100 µM | GI50 (SK-OV-3 ovarian): 97.6 µM | TGI (SK-OV-3 ovarian): > 100 µM | GI50 (SF-295 CNS): 23.9 µM | TGI (SF-295 CNS): 76.6 µM | GI50 (SNB-19 CNS): 70.4 µM | TGI (SNB-19 CNS): > 100 µM

O=C1CNCCCN2CCN(CCCNCC(=O)Nc3ccc(cc3)S(=O)(=O)c3ccc(cc3)NC(=O)CNCCCN3CCN(CCCNCC(=O)Nc4ccc(cc4)S(=O)(=O)c4ccc(cc4)N1)CC3)CC2
TGI (UO-31 renal): > 100 µM | TGI (KM12 colon): > 100 µM | TGI (HS 578T breast): > 69.4 µM | TGI (HCT-116 colon): > 80.4 µM | TGI (EKVX NSCLC): > 100 µM | TGI (SK-OV-3 ovarian): > 100 µM | TGI (SF-295 CNS): > 62.6 µM | TGI (SNB-19 CNS): > 100 µM

CC12CC[C@@H](C(C)(C)O)C1[C@@H](O)CC1(C)C2CCC2[C@@]3(C)CC[C@H](O)C(C)(C)C3C(O)C[C@]21C (stereo not given in full)
TGI (UO-31 renal): 40 µM | TGI (KM12 colon): 38.1 µM | TGI (HCT-116 colon): 31.3 µM | TGI (EKVX NSCLC): 29 µM | TGI (SF-295 CNS): 37 µM | TGI (SNB-19 CNS): 46.5 µM

CC1CCC2(C(=O)O)CCC3(C)C(=CCC4C5(C)CC(O)C(O)C(C)(CO)C5C(O)CC43C)C2C1C (stereo not given)
TGI (UO-31 renal): > 100 µM | TGI (KM12 colon): > 100 µM | TGI (HS 578T breast): 41.5 µM | TGI (HCT-116 colon): > 24.3 µM | TGI (EKVX NSCLC): > 100 µM | TGI (SK-OV-3 ovarian): > 100 µM | TGI (SF-295 CNS): > 100 µM | TGI (SNB-19 CNS): 56.1 µM

CCNCCNc1cc(-c2ccc(C(=O)OC)cc2)c(C#N)c2nc3ccccc3n12
GI50 (UO-31 renal): 1.53 µM | TGI (UO-31 renal): 2.95 µM | GI50 (KM12 colon): 2.59 µM | TGI (KM12 colon): > 100 µM | GI50 (HS 578T breast): 2.42 µM | TGI (HS 578T breast): 7.48 µM | GI50 (HCT-116 colon): 0.758 µM | TGI (HCT-116 colon): 2.09 µM | GI50 (EKVX NSCLC): 4.07 µM | TGI (EKVX NSCLC): > 100 µM | GI50 (SK-OV-3 ovarian): 2 µM | TGI (SK-OV-3 ovarian): 4.8 µM | GI50 (SF-295 CNS): 1.57 µM | TGI (SF-295 CNS): 3.12 µM | GI50 (SNB-19 CNS): 4.57 µM | TGI (SNB-19 CNS): > 100 µM

CCCCC(=O)OCC1OC(n2cnc3c(=S)nc[nH]c32)C(OC(=O)CCCC)C1OC(=O)CCCC (stereo not given)
GI50 (UO-31 renal): 2.2 µM | TGI (UO-31 renal): > 100 µM | GI50 (KM12 colon): 1.48 µM | TGI (KM12 colon): > 100 µM | GI50 (HS 578T breast): > 35.4 µM | TGI (HS 578T breast): > 100 µM | GI50 (HCT-116 colon): 2.15 µM | TGI (HCT-116 colon): > 100 µM | TGI (EKVX NSCLC): > 100 µM | GI50 (SK-OV-3 ovarian): 0.636 µM | TGI (SK-OV-3 ovarian): > 80.3 µM | GI50 (SF-295 CNS): 1.54 µM | TGI (SF-295 CNS): > 26.4 µM | GI50 (SNB-19 CNS): 17.9 µM | TGI (SNB-19 CNS): > 100 µM

O=C(O)Cn1ccc(=O)c2ccc([N+](=O)[O-])cc21
TGI (UO-31 renal): > 100 µM | TGI (KM12 colon): > 100 µM | TGI (HS 578T breast): > 100 µM | TGI (HCT-116 colon): > 100 µM | TGI (SK-OV-3 ovarian): > 100 µM | TGI (SF-295 CNS): > 100 µM | TGI (SNB-19 CNS): > 100 µM

O=C(CN1CCOCC1)Nc1ccc(Cn2nnc3c2C(=O)c2nnn(Cc4ccc(NC(=O)CN5CCOCC5)cc4)c2C3=O)cc1
GI50 (UO-31 renal): 26 µM | TGI (UO-31 renal): > 100 µM | GI50 (KM12 colon): 0.959 µM | TGI (KM12 colon): 5.23 µM | GI50 (HS 578T breast): 1.94 µM | TGI (HS 578T breast): 8.34 µM | GI50 (HCT-116 colon): 0.316 µM | TGI (HCT-116 colon): 1.16 µM | GI50 (EKVX NSCLC): 1.38 µM | TGI (EKVX NSCLC): 2.98 µM | GI50 (SK-OV-3 ovarian): 2.68 µM | TGI (SK-OV-3 ovarian): 8.28 µM | GI50 (SF-295 CNS): 1.65 µM | TGI (SF-295 CNS): 3.68 µM | GI50 (SNB-19 CNS): 0.41 µM | TGI (SNB-19 CNS): 1.57 µM

COc1cccc(/C=N/NC(=O)c2ccccc2Nc2ccnc(C(F)(F)F)c2)c1O
GI50 (UO-31 renal): 0.303 µM | GI50 (KM12 colon): 0.457 µM | TGI (KM12 colon): > 56.4 µM | GI50 (HS 578T breast): 1.08 µM | TGI (HS 578T breast): > 46.7 µM | GI50 (HCT-116 colon): 0.311 µM | TGI (HCT-116 colon): > 67.2 µM | GI50 (EKVX NSCLC): 0.517 µM | TGI (EKVX NSCLC): > 100 µM | GI50 (SK-OV-3 ovarian): 0.583 µM | TGI (SK-OV-3 ovarian): 31 µM | GI50 (SF-295 CNS): 0.522 µM | TGI (SF-295 CNS): 29.1 µM | GI50 (SNB-19 CNS): 2.41 µM | TGI (SNB-19 CNS): > 100 µM

O=C(O)CCCCC(CCSCc1ccccc1)SCc1ccccc1 (stereo not given)
GI50 (UO-31 renal): 30.9 µM | TGI (UO-31 renal): > 100 µM | GI50 (KM12 colon): 35.2 µM | TGI (KM12 colon): > 100 µM | GI50 (HS 578T breast): 50.3 µM | TGI (HS 578T breast): > 100 µM | GI50 (HCT-116 colon): 37.7 µM | TGI (HCT-116 colon): > 100 µM | GI50 (EKVX NSCLC): 40.3 µM | TGI (EKVX NSCLC): > 100 µM | GI50 (SK-OV-3 ovarian): > 88.7 µM | TGI (SK-OV-3 ovarian): > 100 µM | GI50 (SF-295 CNS): 25.8 µM | TGI (SF-295 CNS): > 74.5 µM | GI50 (SNB-19 CNS): 42.9 µM | TGI (SNB-19 CNS): > 100 µM
